Read-outs that look alike come from different tables or passages of the source. Marks after values point to notes of the source that are not given here.
Columns and labels:
cancer patients = settings: cited from earlier work; for MTD: ref Adjei et al, 2003b
[1] = cited from earlier work
plasma proteins = settings: cited from earlier work
[2] = test system: patients with advanced solid tumours; test: Phase I trial: dose-limiting toxicities in cycle 1 and maximum tolerated dose; type: in vivo, human
Procedure: Tipifarnib was supplied by Johnson & Johnson Pharmaceutical Research and Development as 100 mg tablets. […] Tipifarnib was administered orally twice daily, with intervals of 12 h. Tipifarnib was given on days 1–7 of each 21-day cycle. […] To minimise nephrotoxicity, a pre-and posthydration schedule was implemented on day 1. […] At least three patients were treated at each dose level. If DLT occurred in a patient during cycle 1, three additional patients were enrolled in that cohort. MTD was defined at which 2 or more out of 6 patients (2⩾6) experienced DLT. […] These toxicities were only considered DLT if they occurred during the first cycle of treatment. In the case of grade 3–4 haematological toxicities, the dose of gemcitabine was adjusted in the next cycle based on nadir blood cell counts. Dose adjustments were relative to the starting dose of gemcitabine received in the previous cycle of therapy. If the nadir granulocyte count was >500 μl^−1 and the nadir platelet count >50 000 μl^−1, 100% of the planned gemcitabine dose was administered. […] The administration of tipifarnib was discontinued when haematological DLT occurred. After recovery to at least grade 1, tipifarnib was reinstituted at the same dose level in conjunction with a dose modification of gemcitabine. […]

[3] = test system: patients with advanced solid tumours; test: Phase I trial: treatment emergent grade 3 or 4 haematological and nonhaematological toxicities (NCI-CTC v2.0), all cycles; settings: human, in vivo
Procedure: Tipifarnib was supplied by Johnson & Johnson Pharmaceutical Research and Development as 100 mg tablets. […] Tipifarnib was administered orally twice daily, with intervals of 12 h. Tipifarnib was given on days 1–7 of each 21-day cycle. […] To minimise nephrotoxicity, a pre-and posthydration schedule was implemented on day 1. […] At least three patients were treated at each dose level. If DLT occurred in a patient during cycle 1, three additional patients were enrolled in that cohort. MTD was defined at which 2 or more out of 6 patients (2⩾6) experienced DLT. […] These toxicities were only considered DLT if they occurred during the first cycle of treatment. In the case of grade 3–4 haematological toxicities, the dose of gemcitabine was adjusted in the next cycle based on nadir blood cell counts. Dose adjustments were relative to the starting dose of gemcitabine received in the previous cycle of therapy. If the nadir granulocyte count was >500 μl^−1 and the nadir platelet count >50 000 μl^−1, 100% of the planned gemcitabine dose was administered. […] The administration of tipifarnib was discontinued when haematological DLT occurred. After recovery to at least grade 1, tipifarnib was reinstituted at the same dose level in conjunction with a dose modification of gemcitabine. If a patient continued to experience haematological DLT after one dose modification of gemcitabine, the dose of tipifarnib was decreased with 100 mg b.i.d. If at any time the dose of tipifarnib was to be reduced to <100 mg b.i.d. or if retreatment needed to be delayed >2 weeks after the scheduled restarting of a cycle, the patient went off-study. […] If grade 4 nonhaematological toxicities occurred, patients went off-study. No dose adjustments were made for transaminase elevation unless associated with clinical signs or symptoms. […] If at any time the dose of tipifarnib was to be reduced to <100 mg b.i.d. or if retreatment needed to be delayed >2 weeks after the scheduled restarting of a cycle, the patient went off-study.
Complete patient history, physical examination, haematology, chemistry, urinalysis and electrocardiogram were performed at baseline and before each cycle of treatment. Physical examination, haematology and chemistry were also evaluated on days 8 and 15 of each cycle. Audiometry was performed at baseline and was repeated if clinically indicated. Indicator lesions were measured before start of treatment and every two cycles, as a basis for the assessment of activity of the treatment. All toxicities observed were graded according to the Common Toxicity Criteria ([NCI-CTC, Version 2.0, 1998]).

[4] = Plasma pharmacokinetics of tipifarnib (HPLC-UV) as monotherapy or with gemcitabine/cisplatin; type: in vivo, human; settings: single 200 mg oral dose
Procedure: (§1) In cycle 2, tipifarnib pharmacokinetics was then determined on day 2. For gemcitabine, 2 ml blood samples were taken at 0, 15, 30, 35, 45, 60, 90 min and at 2, 2.5, 24, 32 and 48 h after the start of the 30 min infusion during cycle 1 and at 0, 15, 30, 35, 45, 60, 90 min during cycle 2. Both gemcitabine and its metabolite 2′, 2′ -difluoro-2′-deoxy-uridine (dFdU) were measured in plasma. Of each blood sample, 1 ml was added to 10 μl of tetrahydrouridine (10 mg ml^−1), after which it was centrifuged for 5 min at 4°C and 1500 g. Subsequently, the plasma layer was stored at −20°C until analysis. Additionally, 15 ml blood samples were taken at 0, 1.5, 4 and 24 h after the start of the gemcitabine infusion for the determination of the triphosphate metabolite of gemcitabine (dFdCTP) in WBC ([Sparidans et al, 2002]). Isolation of WBC was performed using a Ficoll density gradient (Pharmacia, Sweden) as described previously ([Heinemann et al, 1998]). All gemcitabine levels were measured using a validated high-performance liquid chromatography (HPLC) method, analogous to the method of [Freeman et al (1995)]. […] Blood samples were immediately centrifuged for 5 min at 4°C and 1500 g. Unbound platinum was obtained by ultrafiltration using the MPS-1 system equipped with 3 kDa YMT membranes (Amicon Division, Danvers, MA, USA). The resulting plasma ultrafiltrate and total plasma were immediately stored at −20°C until analysis by atomic absorption spectrometry (AAS) ([Van Warmerdam et al, 1995]). […] For tipifarnib, 5 ml blood samples were drawn at 0, 1, 2, 3, 5, 8 and 12 h after the morning dose. Immediately after collection, the blood samples were centrifuged for 5 min at 4°C at 1500 g. Separated plasma was stored at −20°C for subsequent drug analysis by a validated HPLC method with UV detection ([Zujewski et al, 2000]).
(§2) The following pharmacokinetic parameters were determined using noncompartmental analysis with WinNonLin software (version 4.1, Pharsight Corporation, Mountain View, CA, USA): the maximum plasma concentration (Cmax), time to maximum plasma concentration (tmax), the elimination half-life (t1/2), the area under the plasma concentration–time curve from 0 to 48 h (AUC0–48) of gemcitabine and dFdU and the AUC0–23 for total and unbound (free) platinum. […] In addition, the AUC0–24 of dFdCTP and the AUA0–23 (area under the adduct curve) ([Schellens et al, 1996]) of Pt-DNA adducts were calculated in WBC. For tipifarnib, Cmax, tmax and AUC0-12 were determined.
(§3) The primary pharmacokinetic parameters of interest for the statistical analyses were Cmax and AUC. Only data from patients who completed the pharmacokinetic blood sampling during the first and second cycles and had no dose reduction were included in the analyses. […] A significance level of 0.05 was used for all analyses. The statistical analyses were performed using the SAS statistical software program (version 6.12; SAS Institute, Inc., Cary, NC, USA).

clinical = settings: for AUC(0-t) / Cmax: 750 mg
Procedure: as §1, §2, §3

[5] = dFdCTP in white blood cells with or without tipifarnib; type: in vivo, human; settings: mononuclear blood cell, adjusted to 750 mg m^−2 gemcitabine
[6] = combination with tipifarnib given for 14 days

SMILES: N.N.[Cl][Pt][Cl] [cisplatin]
- MTD (cancer patients; [6]): 75 mg m^−2

SMILES: Cn1cncc1[C@@](N)(c1ccc(Cl)cc1)c1ccc2c(c1)c(-c1cccc(Cl)c1)cc(=O)n2C [tipifarnib]
- Recommended dose (cancer patients; continuous tipifarnib with gemcitabine 1000 mg m^−2 on days 1, 8 and 15 every 4 weeks, ref Patnaik et al, 2003): 200 mg b.i.d.
- Dose up to which the regimen was safe (cancer patients; monotherapy, 7 consecutive days, cancer patients, ref Zujewski et al, 2000): at least 300 mg b.i.d.
- MTD (cancer patients; tipifarnib for 14 days with gemcitabine days 1 and 8 and cisplatin day 1): 300 mg b.i.d.
- Preclinical interaction of the combination ([1]; tipifarnib combined with cisplatin, ref Skrzat et al, 1999): additive
- Preclinical interaction of the combination ([1]; tipifarnib combined with gemcitabine, ref Janssen Research Foundation, 2003): synergy
- Bound to plasma proteins (plasma proteins; ref Janssen Research Foundation, 2003): 99%
- Maximum tolerated dose (MTD) ([2]; oral, days 1–7 of each 21-day cycle, in combination with gemcitabine and cisplatin (dose level 3)): 200 mg b.i.d.
- Patients with a dose reduction owing to haematological toxicities [3]: 10%
- Patients with a dose reduction owing to nonhaematological toxicities [3]: 3%
- AUC(0-t) ([4]; human, tipifarnib as monotherapy (cycle 2 day 2), n=20, read-out: AUC0-12, mean (s.d.)): 2630 ng·h/mL
- Cmax ([4]; human, tipifarnib as monotherapy (cycle 2 day 2), n=20, read-out: Cmax, mean (s.d.)): 499 ng/mL
- Median tmax ([4]; tipifarnib as monotherapy (cycle 2 day 2), n=20): 3.0 h
- AUC0-12, mean (s.d.) ([4]; with gemcitabine 750–1000 mg m^−2 and cisplatin 75–100 mg m^−2 (cycle 1 day 1), n=22): 2971 (2089) ^c h ng ml^−1
- Median tmax ([4]; with gemcitabine 750–1000 mg m^−2 and cisplatin 75–100 mg m^−2 (cycle 1 day 1), n=23): 2.1 h

SMILES: Nc1ccn([C@@H]2O[C@H](CO)[C@@H](O)C2(F)F)c(=O)n1 [gemcitabine]
- MTD (cancer patients; [6]): 1000 mg m^−2
- AUC(0-t) (clinical; human, in vivo): 6710 ng·h/mL
- Cmax (clinical; human, in vivo): 12500 ng/mL
- Median tmax (clinical; human, in vivo, iv): 0.50 h
- Pharmacokinetic (drug–drug) interaction (clinical; in vivo): no drug–drug interaction
- Binding to plasma proteins (plasma proteins; ref Shipley et al, 1992): negligible
- Maximum tolerated dose (MTD) ([2]; i.v., in the combination of tipifarnib, gemcitabine (days 1 and 8) and cisplatin (day 1), 21-day cycle (dose level 3)): 1000 mg m^−2
- Patients with a dose reduction owing to haematological toxicities [3]: 16%
- Patients with a dose reduction owing to nonhaematological toxicities [3]: 13%

SMILES: O=c1ccn([C@@H]2O[C@H](CO)[C@@H](O)C2(F)F)c(=O)[nH]1 [dFdU, 2′, 2′ -difluoro-2′-deoxy-uridine]
- AUC(0-t) (clinical; human, in vivo): 237000 ng·h/mL
- Cmax (clinical; human, in vivo): 25600 ng/mL
- Pharmacokinetic (drug–drug) interaction (clinical; in vivo): significant difference

SMILES: Nc1ccn([C@@H]2O[C@H](COP(=O)(O)OP(=O)(O)OP(=O)(O)O)[C@@H](O)C2(F)F)c(=O)n1 [dFdCTP]
- Pharmacokinetic (drug–drug) interaction (clinical; cycle 1 (with tipifarnib) vs cycle 2 (without tipifarnib), Cmax and AUC, ANOVA): no drug–drug interaction
- AUC0–24, mean (s.d.) ([5]; Gem/cis without tipifarnib): 18.3 (40.9) ^i h nanomol mg protein^−1
- AUC0–24, mean (s.d.) ([5]; Gem/cis+tipifarnib 100–300 mg): 14.7 (22.9) ^j h nanomol mg protein^−1

From paper PMC2361514 (British Journal of Cancer, 2005)
